Data: ChEMBL document CHEMBL1138277, “Synthesis and in vivo activity of MK2 and MK2 substrate-selective p38alpha(MAPK) inhibitors in Werner syndrome cells” (Bioorg Med Chem Lett, 2007)
Activity calls are given as the source filed them. The rule behind the calls is not given here.

Key:
[1] = target: T1, MAP kinase-activated protein kinase 2 (Homo sapiens, UniProt P49137); assay: Inhibition of MK2 mediated HSP27 phosphorylation in immortalised WS cells assessed as reduction in F-actin stress fibres; assay type: cell-based
Target sequence in this assay (P49137 whole entry, looked up): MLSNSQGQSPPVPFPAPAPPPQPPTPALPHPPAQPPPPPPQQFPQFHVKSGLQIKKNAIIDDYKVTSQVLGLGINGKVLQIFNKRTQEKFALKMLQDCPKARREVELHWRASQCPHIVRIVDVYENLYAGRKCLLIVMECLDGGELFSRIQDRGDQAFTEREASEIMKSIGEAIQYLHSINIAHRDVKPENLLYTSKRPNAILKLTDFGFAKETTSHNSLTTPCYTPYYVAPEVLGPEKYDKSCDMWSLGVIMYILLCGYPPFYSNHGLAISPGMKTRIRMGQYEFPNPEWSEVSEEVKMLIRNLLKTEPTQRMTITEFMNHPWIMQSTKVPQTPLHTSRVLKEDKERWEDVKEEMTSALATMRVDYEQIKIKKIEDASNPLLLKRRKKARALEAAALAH

[2] = target: T1, MAP kinase-activated protein kinase 2; assay: Inhibition of MK2 in human TERT immortalised HCA2 cells assessed as maximal inhibition of anisomycin-induced HSP27 phosphorylation at 25 uM by ELISA; assay type: cell-based
Target sequence in this assay (P49137 whole entry, looked up): as above

[3] = target: T1, MAP kinase-activated protein kinase 2; assay: Inhibition of MK2 in human TERT immortalised HCA2 cells assessed as inhibition of anisomycin-induced HSP27 phosphorylation at 2.5 uM by ELISA; assay type: cell-based
Homo sapiens = species: Homo sapiens; assay: Inhibition of JNK
[4] = target: T1, MAP kinase-activated protein kinase 2; assay: Inhibition of MK2 mediated HSP27 phosphorylation in immortalised WS cells assessed as reduction in F-actin stress fibres at 25 uM after 6 days; assay type: cell-based
Target sequence in this assay (P49137 whole entry, looked up): as above

WS [5] = assay: Growth inhibition of WS cells above 2.5 uM; assay type: functional, cell-based; conditions: Homo sapiens
[6] = target: T1, MAP kinase-activated protein kinase 2; assay: Inhibition of MK2 in human TERT immortalised HCA2 cells assessed as inhibition of anisomycin-induced HSP27 phosphorylation by ELISA; assay type: cell-based
Target sequence in this assay (P49137 whole entry): as the sequence (P49137 whole entry, looked up) above

HCA2 = assay: Growth inhibition of HCA2 cells above 2.5 uM; assay type: functional, cell-based; conditions: Homo sapiens
[7] = target: MAP kinase p38 (Homo sapiens) (UniProt O15264+Q15759+Q16539+P53778); assay: Inhibition of p38 mediated MK2 activation in HCA2 cells at 25 uM; assay type: cell-based
WS [8] = assay: Growth inhibition of WS cells above 200 nM; assay type: functional, cell-based; conditions: Homo sapiens

Compound: C[S+]([O-])c1ccc(-c2nc(-c3ccc(F)cc3)c(-c3ccncc3)[nH]2)cc1 (stereo not drawn)
- Activity [1]: Active

Compound: N#Cc1c(N)nc2c(c1N)Cc1cc(O)c(O)cc1O2
- Activity [1]: Active
- Activity [2]: Active
- Activity [3]: Active
- Activity (Homo sapiens): inactive
- Activity [4]: Active
- Activity (WS [5]): Active
- IC50 [6]: 2500 nM
- Activity (HCA2): Active
- Activity [7]: inactive

Compound: O=C(CCCc1ccc(-c2ccccc2F)cc1)Nc1ccc(O)cc1
- Ki app [3]: 330 nM
- Activity (Homo sapiens): inactive
- Activity (WS [8]): Active
